The source of these data is patent US11247972B2, “Compositions and methods for treating toxoplasmosis, cryptosporidiosis, and other apicomplexan protozoan related diseases” (University of Washington through its Center for …, priority 2010, dated 2022).

One test addresses PfCDPK1 (Plasmodium falciparum (isolate 3D7), UniProt P62344). As to the kind of experiment: biochemical. As to conditions: read-out: PfCDPK1 (% inhibition @ 3 uM).
The target of a further test is PfCDPK4 (Plasmodium falciparum (isolate 3D7), UniProt Q8IBS5). Put plainly: biochemical. The conditions noted are these: read-out: PfCDPK4 (% inhibition @ 3 uM).

Structures are written as SMILES.

A word on the inhibition: it is the change of the read-out against control, counted positive when it falls. Take `CC(C)c1cccc(-c2nn(C(C)C)c3ncnc(N)c23)c1` [Compound 7e, 1-isopropyl-3-(3-isopropylphenyl)-1H-pyrazolo[3,4-d]pyrimidin-4-amine]: the inhibition at 3 µM stood at 74% on PfCDPK1 and 52% on PfCDPK4.
Regarding `Cc1ccc(-c2nn(C(C)C)c3ncnc(N)c23)cc1C` [Compound 7h, 3-(3,4-dimethylphenyl)-1-isopropyl-1H-pyrazolo[3,4-d]pyrimidin-4-amine], the inhibition at 3 µM is 83% on PfCDPK1 and 85% at PfCDPK4.
For `CC(C)n1nc(-c2cccc3ccccc23)c2c(N)ncnc21` [Compound 7o, 1-isopropyl-3-(naphthalen-1-yl)-1H-pyrazolo[3,4-d]pyrimidin-4-amine], the inhibition at 3 µM on PfCDPK1 worked out at 58%; on PfCDPK4, 79%.
On to `CC(C)n1nc(-c2ccc3ccccc3c2)c2c(N)ncnc21` [Compound 7p, 1-isopropyl-3-(naphthalen-2-yl)-1H-pyrazolo[3,4-d]pyrimidin-4-amine], for which the inhibition at 3 µM at PfCDPK1 was 95%; on PfCDPK4, 98%.
For the compound `CCOc1ccc2cc(-c3nn(C(C)C)c4ncnc(N)c34)ccc2c1` [Compound 7r, 3-(6-ethoxynaphthalen-2-yl)-1-isopropyl-1H-pyrazolo[3,4-d]pyrimidin-4-amine], the inhibition at 3 µM on PfCDPK1 came to 94%; at PfCDPK4 it was 99%.
`COc1cc2ccccc2cc1-c1nn(C(C)C)c2ncnc(N)c12` [Compound 7s, 1-isopropyl-3-(3-methoxynaphthalen-2-yl)-1H-pyrazolo[3,4-d]pyrimidin-4-amine]: the inhibition at 3 µM on PfCDPK1 was determined as 53%; at PfCDPK4, 20%.
For `CC(C)n1nc(-c2ccc3c(c2)OCO3)c2c(N)ncnc21` [Compound 7u, 3-(benzo[d][1,3]dioxol-5-yl)-1-isopropyl-1H-pyrazolo[3,4-d]pyrimidin-4-amine], the figures for the inhibition at 3 µM on PfCDPK1 and at PfCDPK4 were 94% and 77%, respectively.
As for `CC(C)n1nc(-c2cccc(-c3ccccc3)c2)c2c(N)ncnc21` [Compound 7z, 3-(biphenyl-3-yl)-1-isopropyl-1H-pyrazolo[3,4-d]pyrimidin-4-amine], the inhibition at 3 µM was 79% on PfCDPK1 and 21% at PfCDPK4.
On to `CC(C)c1nc(-c2ccc3ccccc3c2)c2c(N)nccn12` [Compound 8, 3-isopropyl-1-(naphthalen-2-yl)imidazo[1,5-a]pyrazin-8-amine], for which the inhibition at 3 µM at PfCDPK1 and at PfCDPK4 was 92% throughout.
In the case of `CC(C)c1nc(-c2cnc3ccccc3c2)c2c(N)nccn12` [Compound 9, 3-isopropyl-1-(quinolin-3-yl)imidazo[1,5-a]pyrazin-8-amine], the inhibition at 3 µM on PfCDPK1 turned out to be 76%; at PfCDPK4, 88%.
For the compound `CCOc1ccc2cc(-c3nc(C(C)C)n4ccnc(N)c34)ccc2c1` [Compound 10, 1-(6-ethoxynaphthalen-2-yl)-3-isopropylimidazo[1,5-a]pyrazin-8-amine], the inhibition at 3 µM on PfCDPK1 stood at 93%; at PfCDPK4, 94%.
The matching figures for `CC(C)Oc1ccc2cc(-c3nn(C(C)C)c4ncnc(N)c34)ccc2c1` [Compound 11, 3-(6-isopropoxynaphthalen-2-yl)-1-isopropyl-1H-pyrazolo[3,4-d]pyrimidin-4-amine]: 93% and 87%.
`CCCOc1ccc2cc(-c3nn(C(C)C)c4ncnc(N)c34)ccc2c1` [Compound 12, 1-isopropyl-3-(6-propoxynaphthalen-2-yl)-1H-pyrazolo[3,4-d]pyrimidin-4-amine]: the values for the inhibition at 3 µM at PfCDPK1 and on PfCDPK4 were 95% and 91%, respectively.
On to `Nc1ncnc2c1c(Cc1cccc3ccccc13)nn2CC1CCCCC1` [Compound 17, 1-(cyclohexylmethyl)-3-(naphthalen-1-ylmethyl)-1H-pyrazolo[3,4-d]pyrimidin-4-amine], for which the inhibition at 3 µM at PfCDPK1 is 44%; on PfCDPK4, 5%.
Regarding `CC(C)n1nc(-c2cccc(OCc3ccccc3Cl)c2)c2c(N)ncnc21` [Compound 21, 3-(3-(2-chlorobenzyloxy)phenyl)-1-isopropyl-1H-pyrazolo[3,4-d]pyrimidin-4-amine], the inhibition at 3 µM at PfCDPK1 was 68%; at PfCDPK4, 9%.
For the compound `COc1cc(COc2cccc(-c3nn(C(C)C)c4ncnc(N)c34)c2)cc(OC)c1` [Compound 22, 3-(3-(3,5-dimethoxybenzyloxy)phenyl)-1-isopropyl-1H-pyrazolo[3,4-d]pyrimidin-4-amine], the inhibition at 3 µM on PfCDPK1 turned out to be 71%; on PfCDPK4 it was 9%.
Turning to `COc1ccc(-c2nn(C(C)C)c3ncnc(N)c23)cc1OC(C)C` [Compound 23, 3-(3-isopropoxy-4-methoxyphenyl)-1-isopropyl-1H-pyrazolo[3,4-d]pyrimidin-4-amine], the inhibition at 3 µM at PfCDPK1 is 75%; on PfCDPK4 it was 11%.
`COc1ccc2cc(-c3nn(CC4CCNCC4)c4ncnc(N)c34)ccc2c1` [Compound 28, 3-(6-methoxynaphthalen-2-yl)-1-(piperidin-4-ylmethyl)-1H-pyrazolo[3,4-d]pyrimidin-4-amine]: the figures for the inhibition at 3 µM on PfCDPK1 and on PfCDPK4 were 92% and 99%, respectively.
With `Nc1ncnc2c1c(-c1cnc3ccccc3c1)nn2CC1CCNCC1` [Compound 30, 1-(piperidin-4-ylmethyl)-3-(quinolin-3-yl)-1H-pyrazolo[3,4-d]pyrimidin-4-amine], the inhibition at 3 µM on PfCDPK1 amounted to 82%; at PfCDPK4, 86%.
Regarding `Nc1ncnc2c1c(Cc1cccc3ccccc13)nn2Cc1c[nH]cn1` [Compound 31, 1-((1H-imidazol-4-yl)methyl)-3-(naphthalen-1-ylmethyl)-1H-pyrazolo[3,4-d]pyrimidin-4-amine], the inhibition at 3 µM at PfCDPK1 was determined as 51%; on PfCDPK4, 40%.
The matching figures for `Nc1ncnc2c1c(-c1ccc3cc(OCc4ccc(Cl)cc4)ccc3c1)nn2CC1CCNCC1` [Compound 39, 3-(6-(4-chlorobenzyloxy)naphthalen-2-yl)-1-(piperidin-4-ylmethyl)-1H-pyrazolo[3,4-d]pyrimidin-4-amine]: 102% and 98%.
The matching figures for `CC(C)n1nc(-c2ccc3cc(OCc4ccccc4)ccc3c2)c2c(N)ncnc21` [Compound 40, 3-(6-(benzyloxy)naphthalen-2-yl)-1-isopropyl-1H-pyrazolo[3,4-d]pyrimidin-4-amine]: 101% and 84%.
The matching figures for `C=CCOc1ccc2cc(-c3nn(C(C)C)c4ncnc(N)c34)ccc2c1` [Compound 41, 3-(6-(allyloxy)naphthalen-2-yl)-1-isopropyl-1H-pyrazolo[3,4-d]pyrimidin-4-amine]: 101% and 98%.
As to `CCCCOc1ccc2cc(-c3nn(C(C)C)c4ncnc(N)c34)ccc2c1` [Compound 42, 3-(6-butoxynaphthalen-2-yl)-1-isopropyl-1H-pyrazolo[3,4-d]pyrimidin-4-amine], the inhibition at 3 µM on PfCDPK1 turned out to be 101%; on PfCDPK4 it was 94%.
As for `CC(C)COc1ccc2cc(-c3nn(C(C)C)c4ncnc(N)c34)ccc2c1` [Compound 43, 3-(6-isobutoxynaphthalen-2-yl)-1-isopropyl-1H-pyrazolo[3,4-d]pyrimidin-4-amine], the figures for the inhibition at 3 µM at PfCDPK1 and at PfCDPK4 were 100% and 78%, respectively.
In the case of `CC(C)COc1ccc2cc(-c3nn(CC4CCNCC4)c4ncnc(N)c34)ccc2c1` [Compound 44, 3-(6-isobutoxynaphthalen-2-yl)-1-(piperidin-4-ylmethyl)-1H-pyrazolo[3,4-d]pyrimidin-4-amine], the figures for the inhibition at 3 µM on PfCDPK1 and at PfCDPK4 were 100% and 97%, respectively.
As for `Nc1ncnc2c1c(-c1ccc(Cl)cc1)nn2CC1CCNCC1` [Compound 45, 3-(4-chlorophenyl)-1-(piperidin-4-ylmethyl)-1H-pyrazolo[3,4-d]pyrimidin-4-amine], the inhibition at 3 µM on PfCDPK1 stood at 101%; on PfCDPK4, 82%.
With `CC(C)n1nc(-c2ccc3cc(OCc4ccccc4Cl)ccc3c2)c2c(N)ncnc21` [Compound 46, 3-(6-(2-chlorobenzyloxy)naphthalen-2-yl)-1-isopropyl-1H-pyrazolo[3,4-d]pyrimidin-4-amine], the inhibition at 3 µM on PfCDPK1 amounted to 95%; at PfCDPK4, 52%.
The matching figures for `CC(C)n1nc(-c2ccc3cc(OCc4cccc(Cl)c4)ccc3c2)c2c(N)ncnc21` [Compound 47, 3-(6-(3-chlorobenzyloxy)naphthalen-2-yl)-1-isopropyl-1H-pyrazolo[3,4-d]pyrimidin-4-amine]: 91% and 51%.
The matching figures for `Cc1ccc(C)c(COc2ccc3cc(-c4nn(C(C)C)c5ncnc(N)c45)ccc3c2)c1` [Compound 48, 3-(6-(2,5-dimethylbenzyloxy)naphthalen-2-yl)-1-isopropyl-1H-pyrazolo[3,4-d]pyrimidin-4-amine]: 84% and 10%.
The matching figures for `Cc1ccccc1COc1ccc2cc(-c3nn(C(C)C)c4ncnc(N)c34)ccc2c1` [Compound 49, 1-isopropyl-3-(6-(2-methylbenzyloxy)naphthalen-2-yl)-1H-pyrazolo[3,4-d]pyrimidin-4-amine]: 88% and 22%.
Regarding `Cc1ccc(C(F)(F)F)cc1COc1ccc2cc(-c3nn(C(C)C)c4ncnc(N)c34)ccc2c1` [Compound 50, 1-isopropyl-3-(6-(2-methyl-5-(trifluoromethyl)benzyloxy)naphthalen-2-yl)-1H-pyrazolo[3,4-d]pyrimidin-4-amine], the values for the inhibition at 3 µM on PfCDPK1 and at PfCDPK4 were 83% and 26%, respectively.
On to `CC(C)n1nc(-c2ccc3cc(OCc4ccc(CC(F)(F)F)c(Cl)c4)ccc3c2)c2c(N)ncnc21` [Compound 51, 3-(6-(3-chloro-4-(2,2,2-trifluoroethyl)benzyloxy)naphthalen-2-yl)-1-isopropyl-1H-pyrazolo[3,4-d]pyrimidin-4-amine], for which the inhibition at 3 µM was found to be 86% at PfCDPK1 and 92% at PfCDPK4.
